Experimental data: US20240383898A1, “PYRIDO RING COMPOUND, PREPARATION METHOD THEREFOR, INTERMEDIATE, COMPOSITION, AND APPLICATION” (YIYOU BIOTECH (SHANGHAI) CO., LTD, priority 2021, published 2024)

Key:
[1] = target: T1, JAK2 (Homo sapiens, UniProt O60674); assay: In vitro activity test of JAK2 kinase (Caliper EZ Reader conversion assay); format: biochemical; conditions: enzyme activity, 10 concentrations from 1000 nM, 3-fold dilution
T1 construct: purchased Carna 08-045
Procedure: (§1) In Vitro Activity Test of JAK1 and JAK2 Kinases
(§2) • Centrifuge (manufacturer: Eppendorf, model: 5430) • ELISA Instrument (Manufacturer: Perkin Elmer, Model: Caliper EZ Reader 1I) • Echo 550 (Manufacturer: Labcyte, Model: Echo 550)
(§3) (1) Prepare 1 Kinase buffer.
(§4) (2) Compound concentration gradient preparation: The test compound was tested at 1000 nM, 3-fold dilution, 10 concentrations, two-well assay, and configured to a 100-fold final concentration in a 384-well plate. 250 nl of the test compound was then transferred to the 384 reaction plate using Echo550. 250 nl of 100% DMSO was added to each of the negative and positive control wells.
(§5) (3) Prepare 2.5 times the final concentration of kinase solution with 1×Kinase buffer.
(§6) (4) Add 10 μL of 2.5 times the final concentration of kinase solution to the compound wells and 10 μL of 1×Kinase buffer to the negative control wells.
(§7) (5) Centrifuge at 1000 rpm for 30 seconds, mix well with shaking, and incubate at room temperature for 10 minutes.
(§8) (6) Prepare a 25/15-fold final concentration of mixture of ATP and Kinase substrate with 1×Kinase buffer.
(§9) (7) Add 15 μL of a mixture of 25/15 times the final concentration of ATP and substrate to start the reaction.
(§10) (8) Centrifuge the 384-well plate at 1000 rpm for 30 seconds, mix well with shaking, and incubate at room temperature for an appropriate amount of time.
(§11) (9) Stop the kinase reaction by adding 30 μL of termination solution, centrifuge at 1000 rpm for 30 seconds, and mix well with shaking.
(§12) (10) Read the conversion rate with Caliper EZ Reader.
(§13) where: Conversion %_sample is the conversion rate reading of the sample-, Conversion %_min: the average value of the negative control wells, representing the conversion reading of the wells without enzyme activity: Conversion %-max: the average value of the positive control wells, representing the conversion reading of the wells without compound inhibition.
(§14) The log value of concentration was used as the X-axis and the percentage inhibition as the Y-axis, and the function of the analytical software GraphPad Prism 5; log(inhibitor) vs. response -Variable slope, was used to lit dose-effect curves to obtain the IC50) values of each compound on enzyme activity.
(§15) The formula is Y=Bottom+(Top-Bottom)/(1+10^((LogIC50-X)*HillSlope))
(§16) The 1C50 data are specified in Table 1.

[2] = target: T2, JAK1 (Homo sapiens, UniProt P23458); assay: In vitro activity test of JAK1 kinase (Caliper EZ Reader conversion assay); format: biochemical; conditions: enzyme activity, 10 concentrations from 1000 nM, 3-fold dilution
T2 construct: purchased Carna 08-114
T2 sequence (P23458 whole entry, species assumed): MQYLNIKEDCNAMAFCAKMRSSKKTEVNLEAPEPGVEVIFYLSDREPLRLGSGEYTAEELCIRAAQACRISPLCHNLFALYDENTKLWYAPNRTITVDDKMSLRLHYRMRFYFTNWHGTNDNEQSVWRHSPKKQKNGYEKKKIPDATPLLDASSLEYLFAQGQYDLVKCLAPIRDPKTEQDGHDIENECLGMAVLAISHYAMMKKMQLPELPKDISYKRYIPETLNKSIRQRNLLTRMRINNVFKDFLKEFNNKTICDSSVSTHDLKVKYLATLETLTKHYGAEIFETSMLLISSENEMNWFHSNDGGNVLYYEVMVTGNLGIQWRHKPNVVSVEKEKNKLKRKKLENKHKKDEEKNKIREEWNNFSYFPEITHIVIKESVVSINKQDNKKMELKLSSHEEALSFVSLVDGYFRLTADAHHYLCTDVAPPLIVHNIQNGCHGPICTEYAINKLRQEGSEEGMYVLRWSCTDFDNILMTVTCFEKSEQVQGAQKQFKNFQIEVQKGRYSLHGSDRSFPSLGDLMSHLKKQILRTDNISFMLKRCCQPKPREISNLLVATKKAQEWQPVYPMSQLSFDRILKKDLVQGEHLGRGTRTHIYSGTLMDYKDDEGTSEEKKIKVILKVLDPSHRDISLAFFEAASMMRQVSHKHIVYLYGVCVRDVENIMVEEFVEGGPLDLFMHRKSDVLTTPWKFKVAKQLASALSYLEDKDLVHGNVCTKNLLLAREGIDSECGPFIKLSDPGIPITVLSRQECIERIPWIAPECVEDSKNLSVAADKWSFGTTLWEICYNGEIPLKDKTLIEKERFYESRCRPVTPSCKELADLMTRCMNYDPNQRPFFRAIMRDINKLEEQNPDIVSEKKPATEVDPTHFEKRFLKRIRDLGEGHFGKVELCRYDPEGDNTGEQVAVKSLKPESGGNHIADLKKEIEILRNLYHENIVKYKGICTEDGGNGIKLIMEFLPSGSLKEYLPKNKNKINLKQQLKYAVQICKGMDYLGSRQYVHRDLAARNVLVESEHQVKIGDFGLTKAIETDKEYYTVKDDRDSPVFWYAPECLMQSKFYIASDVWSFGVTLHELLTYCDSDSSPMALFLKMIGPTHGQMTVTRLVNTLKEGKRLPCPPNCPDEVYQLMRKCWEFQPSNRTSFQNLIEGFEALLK
Procedure: as §1, §2, §3, §4, §5, §6, §7, §8, §9, §10, §11, §12, §13, §14, §15, §16

T1 sequence (O60674 whole entry, species assumed): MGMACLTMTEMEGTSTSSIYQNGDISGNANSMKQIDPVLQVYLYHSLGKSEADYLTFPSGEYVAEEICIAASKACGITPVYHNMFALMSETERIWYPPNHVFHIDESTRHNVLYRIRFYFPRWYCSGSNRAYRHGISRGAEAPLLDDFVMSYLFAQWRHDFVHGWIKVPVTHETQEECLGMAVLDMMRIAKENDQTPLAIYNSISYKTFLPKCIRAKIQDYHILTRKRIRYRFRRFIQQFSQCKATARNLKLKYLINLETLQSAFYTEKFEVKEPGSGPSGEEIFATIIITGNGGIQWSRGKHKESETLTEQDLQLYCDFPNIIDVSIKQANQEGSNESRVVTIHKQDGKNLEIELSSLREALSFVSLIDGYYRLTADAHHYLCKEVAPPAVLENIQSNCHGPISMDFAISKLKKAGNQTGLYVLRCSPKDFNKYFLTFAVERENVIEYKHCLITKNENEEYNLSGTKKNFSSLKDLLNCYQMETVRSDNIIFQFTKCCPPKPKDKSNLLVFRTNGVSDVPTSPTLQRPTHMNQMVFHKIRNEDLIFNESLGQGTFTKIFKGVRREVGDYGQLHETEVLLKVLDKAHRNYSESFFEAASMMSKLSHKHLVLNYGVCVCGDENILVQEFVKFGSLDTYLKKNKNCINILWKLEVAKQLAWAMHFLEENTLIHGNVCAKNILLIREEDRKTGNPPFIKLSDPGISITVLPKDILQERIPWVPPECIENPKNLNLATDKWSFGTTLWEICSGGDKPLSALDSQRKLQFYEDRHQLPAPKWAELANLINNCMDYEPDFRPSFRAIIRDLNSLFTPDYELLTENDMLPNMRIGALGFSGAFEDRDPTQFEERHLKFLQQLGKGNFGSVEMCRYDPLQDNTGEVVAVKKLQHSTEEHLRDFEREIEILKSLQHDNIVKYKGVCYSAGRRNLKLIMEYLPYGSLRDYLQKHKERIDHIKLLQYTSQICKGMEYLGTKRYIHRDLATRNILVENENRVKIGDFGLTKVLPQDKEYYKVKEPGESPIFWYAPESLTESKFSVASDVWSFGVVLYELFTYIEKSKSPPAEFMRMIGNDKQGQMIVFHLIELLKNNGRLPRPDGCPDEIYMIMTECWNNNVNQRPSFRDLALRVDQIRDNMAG

| Compound | IC50 [1] [nM] | IC50 [2] [nM] |
| --- | --- | --- |
| C[C@@H](O)c1nc2cnc3[nH]ccc3c2n1-c1ccc(C#N)cc1 [LXS54, (R)-4-(2-(1-Hydroxyethyl)imidazo[4,5-d]pyrrolo[2,3-b]pyridin-1(6H)-yl)benzonitrile] | 100 to 1000 | 100 to 1000 |
| N#Cc1ccc(-n2c(-c3ccc(CO)o3)nc3cnc4[nH]ccc4c32)cc1 [LXS55, 4-(2-(5-(Hydroxymethyl)furan-2-yl)imidazo[4,5-d]pyrrolo[2,3-b]pyridin-1(6H)-yl)benzonitrile] | 100 to 1000 | 100 to 1000 |
| N#Cc1ccc(-n2c(-c3cccc(O)c3)nc3cnc4[nH]ccc4c32)cc1 [LXS56, 4-(2-(3-Hydroxyphenyl)imidazo[4,5-d]pyrrolo[2,3-b]pyridin-1(6H)-yl)benzonitrile] | 100 to 1000 | 10 to 100 |
| C[C@@H](O)c1nc2cnc3[nH]ccc3c2n1[C@H]1CCN(CCC#N)C1 [LXS59, 3-((S)-3-(2-((R)-1-hydroxyethyl)imidazo[4,5-d]pyrrolo[2,3-b]pyridin-1(6H)-yl)pyrrolidin-1-yl)propanenitrile] | 100 to 1000 | 10 to 100 |
| C[C@@H](O)c1nc2cnc3[nH]ccc3c2n1C1CCN(C(=O)C2(C#N)CC2)C1 (stereo partly drawn) [LXS61, 1-(3-(2-((R)-1-Hydroxyethyl)imidazo[4,5-d]pyrrolo[2,3-b]pyridin-1(6H)-yl)pyrrolidin-1-carbonyl)cyclopropanecarbonitrile] | 100 to 1000 | 100 to 1000 |
| CCS(=O)(=O)N1CC(CC#N)(n2cc(-n3c(-c4ccc(C)s4)nc4cnc5[nH]ccc5c43)cn2)C1 [LXS62, 2-(1-(Ethylsulfonyl)-3-(4-(2-(5-methylthien-2-yl)imidazo[4,5-d]pyrrolo[2,3-b]pyridin-1(6H)-yl)-1H-pyrazol-1-yl)azetidin-3-yl)acetonitrile] | < 10 | 100 to 1000 |
| CCS(=O)(=O)N1CC(CC#N)(n2cc(-n3c(-c4cccs4)nc4cnc5[nH]ccc5c43)cn2)C1 [LXS63, 2-(1-(Ethylsulfonyl)-3-(4-(2-(thiophen-2-yl)imidazo[4,5-d]pyrrolo[2,3-b]pyridin-1(6H)-yl)-1H-pyrazol-1-yl)azetidin-3-yl)acetonitrile] | < 10 | 100 to 1000 |
| N#CCCn1cc(-n2c(C(F)(F)F)nc3cnc4[nH]ccc4c32)cn1 [LXS64, 3-(4-(2-(Trifluoromethyl)imidazo[4,5-d]pyrrolo[2,3-b]pyridin-1(6H)-yl)-1H-pyrazol-1-yl)propanenitrile] | < 10 | 100 to 1000 |
| C[C@@H](O)c1nc2cnc3[nH]ccc3c2n1[C@H]1CCN(CCCC#N)C1 [LXS65, 4-((S)-3-(2-((R)-1-Hydroxyethyl)imidazo[4,5-d]pyrrolo[2,3-b]pyridin-1(6H)-yl)pyrrolidin-1-yl)butanenitrile] | 100 to 1000 | < 10 |
| CS(=O)(=O)c1ccc(C2Nc3cnc4[nH]ccc4c3N2c2cnn(CCC#N)c2)cc1 (stereo not drawn) [LXS67, 3-(4-(2-(4-(Methylsulfonyl)phenyl)-2,3-dihydroimidazo[4,5-d]pyrrolo[2,3-b]pyridin-1(6H)-yl)-1H-pyrazol-1-yl)propanenitrile] | 10 to 100 | 10 to 100 |
| C[C@@H](O)c1nc2cnc3[nH]ccc3c2n1[C@H]1CCN(CCCC(F)(F)F)C1 [LXS71, (R)-1-(1-((S)-1-(4,4,4-Trifluorobutyl)pyrrolidin-3-yl)-1,6-dihydroimidazo[4,5-d]pyrrolo[2,3-b]pyridin-2-yl)ethanol] | 100 to 1000 | < 10 |
| C[C@@H](O)c1nc2cnc3[nH]ccc3c2n1[C@@H]1CN(CCCCC#N)CC12CC2 [LXS72, 5-((S)-7-(2-((R)-1-Hydroxyethyl)imidazo[4,5-d]pyrrolo[2,3-b]pyridin-1(6H)-yl)-5-azaspiro[2,4]hept-5-yl)pentanonitrile] | 10 to 100 | 10 to 100 |
| C[C@@H](O)c1nc2cnc3[nH]ccc3c2n1[C@H]1CCN(CCCCCF)C1 [LXS73, (R)-1-(1-((S)-1-(5-fluoropentyl)pyrrolidin-3-yl)-1,6-dihydroimidazo[4,5-d]pyrrolo[2,3-b]pyridin-2-yl) ethanol] | 100 to 1000 | < 10 |
| C[C@@H](O)c1nc2cnc3[nH]ccc3c2n1[C@H]1CCN(CC(=O)NCC(F)(F)F)C1 [LXS74, 2-((S)-3-(2-((R)-1-Hydroxyethyl)imidazo[4,5-d]pyrrolo[2,3-b]pyridin-1(6H)-yl)pyrrolidin-1-yl)-N-(2,2,2-trifluoroethyl)acetamide] | 100 to 1000 | < 10 |

Now from value to compound:

| IC50 [1] [nM] | IC50 [2] [nM] | Compound |
| --- | --- | --- |
| 100 to 1000 | 100 to 1000 | CS(=O)(=O)c1ccc(C2Nc3cnc4[nH]ccc4c3N2c2ccc(C#N)cc2)cc1 (stereo not drawn) [LXS57, 4-(2-(4-(Methylsulfonyl)phenyl)-2,3-dihydroimidazo[4,5-d]pyrrolo[2,3-b]pyridin-1(6H)-yl)benzonitrile] |
| 10 to 100 | 10 to 100 | C[C@@H](O)c1nc2cnc3[nH]ccc3c2n1[C@@H]1CCN(CCC#N)C1 [LXS58, 3-((R)-3-(2-((R)-1-Hydroxyethyl)imidazo[4,5-d]pyrrolo[2,3-b]pyridin-1(6H)-yl)pyrrolidin-1-yl)propanenitrile] |
| 10 to 100 | 10 to 100 | CS(=O)(=O)c1ccc(C2Nc3cnc4[nH]ccc4c3N2C2CCN(CCC#N)C2)cc1 (stereo not drawn) [LXS60, 3-(3-(2-(4-(Methylsulfonyl)phenyl)-2,3-dihydroimidazo[4,5-d]pyrrolo[2,3-b]pyridin-1(6H)-yl)pyrrolidin-1-yl)propanenitrile] |
| 10 to 100 | 10 to 100 | N#CCC(C1CCCC1)n1cc(-n2c(C(F)(F)F)nc3cnc4[nH]ccc4c32)cn1 (stereo not drawn) [LXS66, 3-Cyclopentyl-3-(4-(2-(trifluoromethyl)imidazo[4,5-d]pyrrolo[2,3-b]pyridin-1(6H)-yl)-1H-pyrazol-1-yl)propanenitrile] |
| 100 to 1000 | < 10 | C[C@@H](O)c1nc2cnc3[nH]ccc3c2n1[C@H]1CCN(CCCCC#N)C1 [LXS68, 5-((S)-3-(2-((R)-1-Hydroxyethyl)imidazo[4,5-d]pyrrolo[2,3-b]pyridin-1(6H)-yl)pyrrolidin-1-yl)pentanonitrile] |
| 10 to 100 | 10 to 100 | C[C@@H](O)c1nc2cnc3[nH]ccc3c2n1[C@@H]1CN(CCCC#N)CC12CC2 [LXS69, 4-((S)-7-(2-((R)-1-Hydroxyethyl)imidazo[4,5-d]pyrrolo[2,3-b]pyridin-1(6H)-yl)-5-azaspiro[2,4]hept-5-yl)butanenitrile] |
| 10 to 100 | 10 to 100 | C[C@@H](O)c1nc2cnc3[nH]ccc3c2n1[C@@H]1CN(CCCC(F)(F)F)CC12CC2 [LXS70, (R)-1-(1-((S)-5-(4,4,4-Trifluorobutyl)-5-azaspiro[2,4]hept-7-yl)-1,6-dihydroimidazo[4,5-d]pyrrolo[2,3-b]pyridin-2-yl)ethanol] |
| 100 to 1000 | < 10 | CC(C(=O)NCC(F)(F)F)N1CC[C@H](n2c([C@@H](C)O)nc3cnc4[nH]ccc4c32)C1 (stereo partly drawn) [LXS75, 2-((S)-3-(2-((R)-1-Hydroxyethyl)imidazo[4,5-d]pyrrolo[2,3-b]pyridin-1(6H)-yl)pyrrolidin-1-yl)-N-(2,2,2-trifluoroethyl)propanamide] |
| 100 to 1000 | < 10 | CCC(C(=O)NCC(F)(F)F)N1CC[C@H](n2c([C@@H](C)O)nc3cnc4[nH]ccc4c32)C1 (stereo partly drawn) [LXS76, 2-((S)-3-(2-((R)-1-Hydroxyethyl)imidazo[4,5-d]pyrrolo[2,3-b]pyridin-1(6H)-yl)pyrrolidin-1-yl)-N-(2,2,2-trifluoroethyl)butanamide] |
| < 10 | 100 to 1000 | CCS(=O)(=O)N1CC(CC#N)(n2cc(-n3c(-c4ccc(C)o4)nc4cnc5[nH]ccc5c43)cn2)C1 [LXS77, 2-(1-(ethylsulfonyl)-3-(4-(2-(5-methylfuran-2-yl)imidazolyl[4,5-d]pyrrolo[2,3-b]pyridin-1(6H)-yl)-1H-pyrazol-1-yl)azetidin-3-yl) acetonitrile] |
| 10 to 100 | 10 to 100 | N#CCn1cc(-n2c(C(F)(F)F)nc3cnc4[nH]ccc4c32)cn1 [LXS78, 2-(4-(2-(Trifluoromethyl)imidazo[4,5-d]pyrrolo[2,3-b]pyridin-1(6H)-yl)-1H-pyrazol-1-yl)acetonitrile] |
| < 10 | 100 to 1000 | N#CCCn1cc(-n2cnc3cnc4[nH]ccc4c32)cn1 [LXS79, 3-(4-(Imidazo[4,5-d]pyrrolo[2,3-b]pyridin-1(6H)-yl)-1H-pyrazol-1-yl)propanenitrile] |
| 10 to 100 | 10 to 100 | N#CCCn1cc(-n2c(-c3ccccc3Cl)nc3cnc4[nH]ccc4c32)cn1 [LXS80, 3-(4-(2-(2-Chlorophenyl)imidazo[4,5-d]pyrrolo[2,3-b]pyridin-1(6H)-yl)-1H-pyrazol-1-yl)propanenitrile] |
